# Source: ChEMBL document CHEMBL1201862, “PubChem BioAssay data set” (2004)
# Activity calls are given as the source filed them.
# Columns and labels:
# [1] = target: 72 kDa type IV collagenase (Homo sapiens, UniProt P08253); assay: Dose Response validation of uHTS RPN11 inhibitor hits using a MMP-2 Fluorescence assay.; type: functional
# [2] = target: 26S proteasome non-ATPase regulatory subunit 14 (Homo sapiens, UniProt O00487); assay: inhibition of proteasome subunit RPN11 – biochemical, fluorescence polarization, uHTS hits, confirmation (AID 602368); type: functional
# 26S proteasome non-ATPase regulatory subunit 14, sequence (O00487 whole entry): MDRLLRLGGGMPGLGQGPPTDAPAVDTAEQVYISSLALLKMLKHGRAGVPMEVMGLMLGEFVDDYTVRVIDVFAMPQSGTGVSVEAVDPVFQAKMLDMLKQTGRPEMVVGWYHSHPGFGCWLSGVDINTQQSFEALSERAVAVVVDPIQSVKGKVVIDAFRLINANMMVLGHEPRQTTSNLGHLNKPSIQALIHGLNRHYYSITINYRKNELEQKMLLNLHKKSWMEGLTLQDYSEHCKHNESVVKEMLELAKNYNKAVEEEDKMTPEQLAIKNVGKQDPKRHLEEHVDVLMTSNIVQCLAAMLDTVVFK
# Prothrombin = Prothrombin (Bos taurus, UniProt P00735); assay: thrombin protease inhibitors – biochemical, fluorescence polarization, uHTS hits, dose response (AID 602369); type: functional
# [3] = target: T1, Corticotropin-releasing factor receptor 2/Corticotropin-releasing factor-binding protein (Homo sapiens, UniProt P24387+Q13324); assay: Dose Response confirmation of uHTS hits for small molecule antagonists of the CRF-binding protein and CRF-R2 receptor complex.; type: functional; conditions: read-out: IC50_Mean
# T1 sequence (Q13324 whole entry): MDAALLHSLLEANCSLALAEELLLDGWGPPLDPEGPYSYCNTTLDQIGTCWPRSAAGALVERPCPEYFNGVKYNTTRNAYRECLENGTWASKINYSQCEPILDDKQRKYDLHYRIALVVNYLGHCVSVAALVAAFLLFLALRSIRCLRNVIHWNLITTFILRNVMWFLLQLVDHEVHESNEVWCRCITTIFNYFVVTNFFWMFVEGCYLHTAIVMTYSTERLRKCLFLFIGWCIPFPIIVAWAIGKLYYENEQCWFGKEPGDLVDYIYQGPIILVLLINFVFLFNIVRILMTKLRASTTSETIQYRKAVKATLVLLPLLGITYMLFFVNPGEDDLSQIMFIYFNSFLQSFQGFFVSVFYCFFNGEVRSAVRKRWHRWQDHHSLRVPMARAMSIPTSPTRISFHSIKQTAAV
# T1 sequence (P24387 whole entry): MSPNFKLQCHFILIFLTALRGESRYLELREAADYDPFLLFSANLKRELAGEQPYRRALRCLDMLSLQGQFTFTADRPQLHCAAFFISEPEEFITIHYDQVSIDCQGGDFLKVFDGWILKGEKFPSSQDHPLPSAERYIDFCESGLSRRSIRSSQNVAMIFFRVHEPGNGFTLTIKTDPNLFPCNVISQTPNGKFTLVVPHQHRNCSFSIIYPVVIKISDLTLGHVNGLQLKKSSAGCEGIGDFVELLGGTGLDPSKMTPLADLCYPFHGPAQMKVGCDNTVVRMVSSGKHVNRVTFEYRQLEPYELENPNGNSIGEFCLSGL
# [4] = target: T1, Corticotropin-releasing factor receptor 2/Corticotropin-releasing factor-binding protein; assay: activators of CRF receptor 2 with binding protein – uHTS hits, confirmation (AID 602473); type: functional; conditions: read-out: EC50_Mean
# [5] = blockers of CRF-binding protein–CRF-R2 complex – cell-based, uHTS hits, 384-well, dose response (AID 651639); type: functional, Homo sapiens; conditions: read-out: IC50_Mean
# [6] = target: T2, Apoptotic protease-activating factor 1 (Homo sapiens, UniProt O14727); type: functional
# T2 sequence (O14727 whole entry): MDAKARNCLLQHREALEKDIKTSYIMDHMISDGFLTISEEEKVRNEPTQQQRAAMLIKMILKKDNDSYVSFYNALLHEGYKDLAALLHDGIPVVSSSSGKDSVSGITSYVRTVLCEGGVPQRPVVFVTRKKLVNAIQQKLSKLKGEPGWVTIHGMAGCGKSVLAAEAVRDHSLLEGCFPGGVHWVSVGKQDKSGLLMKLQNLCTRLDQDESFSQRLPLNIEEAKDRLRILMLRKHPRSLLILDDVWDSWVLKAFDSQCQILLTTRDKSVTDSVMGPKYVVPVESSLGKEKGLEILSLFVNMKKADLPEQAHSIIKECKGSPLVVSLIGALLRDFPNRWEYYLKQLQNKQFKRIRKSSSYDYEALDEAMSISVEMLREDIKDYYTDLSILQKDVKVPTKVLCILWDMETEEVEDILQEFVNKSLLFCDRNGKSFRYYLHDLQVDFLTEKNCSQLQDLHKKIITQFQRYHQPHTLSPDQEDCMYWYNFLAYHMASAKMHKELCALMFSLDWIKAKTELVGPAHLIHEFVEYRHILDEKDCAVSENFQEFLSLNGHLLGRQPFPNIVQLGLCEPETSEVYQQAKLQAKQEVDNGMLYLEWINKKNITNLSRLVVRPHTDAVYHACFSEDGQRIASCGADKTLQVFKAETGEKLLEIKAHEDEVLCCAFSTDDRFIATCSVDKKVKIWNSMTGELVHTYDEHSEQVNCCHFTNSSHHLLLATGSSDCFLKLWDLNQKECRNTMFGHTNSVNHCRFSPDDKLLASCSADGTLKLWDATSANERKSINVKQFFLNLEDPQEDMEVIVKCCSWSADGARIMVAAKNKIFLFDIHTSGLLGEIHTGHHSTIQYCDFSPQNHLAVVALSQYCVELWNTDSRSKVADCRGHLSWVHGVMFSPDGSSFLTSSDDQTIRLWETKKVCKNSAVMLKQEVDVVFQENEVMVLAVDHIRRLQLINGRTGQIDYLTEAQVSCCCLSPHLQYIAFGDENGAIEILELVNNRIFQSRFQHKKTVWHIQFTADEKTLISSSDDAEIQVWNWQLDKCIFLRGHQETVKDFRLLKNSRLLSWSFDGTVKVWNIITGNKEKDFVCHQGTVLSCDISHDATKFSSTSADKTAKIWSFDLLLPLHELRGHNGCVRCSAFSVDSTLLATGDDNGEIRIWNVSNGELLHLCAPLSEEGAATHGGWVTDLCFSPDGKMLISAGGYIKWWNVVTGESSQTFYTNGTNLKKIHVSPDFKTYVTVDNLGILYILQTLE
# [7] = viability of uninfected HEp-2 cells – cell-based, HTS, cytotoxicity control for RSV inhibitor project, dose response (AID 2410); type: functional; conditions: human respiratory syncytial virus
# [8] = microbe, parasite or virus in culture; type: functional; conditions: Mycobacterium tuberculosis
# [9] = target: Heat shock protein HSP 90-alpha (Homo sapiens, UniProt P07900); type: functional, organism-based
# Estrogen receptor = target: T3, Estrogen receptor (Homo sapiens, UniProt P03372);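 also: potency for inhibiting coactivator peptide recruitment to the receptor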
# T3 sequence (P03372 whole entry): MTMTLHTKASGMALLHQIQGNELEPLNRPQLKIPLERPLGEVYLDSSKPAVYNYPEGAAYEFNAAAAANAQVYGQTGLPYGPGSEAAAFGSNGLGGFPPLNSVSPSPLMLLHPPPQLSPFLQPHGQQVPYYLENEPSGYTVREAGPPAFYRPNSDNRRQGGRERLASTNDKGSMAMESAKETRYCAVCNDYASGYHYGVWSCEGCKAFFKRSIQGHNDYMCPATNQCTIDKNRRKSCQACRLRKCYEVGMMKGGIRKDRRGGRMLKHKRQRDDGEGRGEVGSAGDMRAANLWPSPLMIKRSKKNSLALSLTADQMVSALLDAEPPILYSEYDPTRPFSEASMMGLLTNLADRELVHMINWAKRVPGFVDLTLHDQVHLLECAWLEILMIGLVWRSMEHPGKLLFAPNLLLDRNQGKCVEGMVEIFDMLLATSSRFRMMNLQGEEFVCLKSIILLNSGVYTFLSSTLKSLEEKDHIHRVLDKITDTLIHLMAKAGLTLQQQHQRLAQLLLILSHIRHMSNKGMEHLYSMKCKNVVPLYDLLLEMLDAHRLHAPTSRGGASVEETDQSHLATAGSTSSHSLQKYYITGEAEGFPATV
# [10] = target: T4, Zinc finger protein mex-5 (Caenorhabditis elegans, UniProt Q9XUB2); assay: potency of MEX-5 RNA-binding blockers – biochemical, C. elegans, fluorescence polarization, dose response (AID 1960)
# T4 sequence (Q9XUB2 whole entry): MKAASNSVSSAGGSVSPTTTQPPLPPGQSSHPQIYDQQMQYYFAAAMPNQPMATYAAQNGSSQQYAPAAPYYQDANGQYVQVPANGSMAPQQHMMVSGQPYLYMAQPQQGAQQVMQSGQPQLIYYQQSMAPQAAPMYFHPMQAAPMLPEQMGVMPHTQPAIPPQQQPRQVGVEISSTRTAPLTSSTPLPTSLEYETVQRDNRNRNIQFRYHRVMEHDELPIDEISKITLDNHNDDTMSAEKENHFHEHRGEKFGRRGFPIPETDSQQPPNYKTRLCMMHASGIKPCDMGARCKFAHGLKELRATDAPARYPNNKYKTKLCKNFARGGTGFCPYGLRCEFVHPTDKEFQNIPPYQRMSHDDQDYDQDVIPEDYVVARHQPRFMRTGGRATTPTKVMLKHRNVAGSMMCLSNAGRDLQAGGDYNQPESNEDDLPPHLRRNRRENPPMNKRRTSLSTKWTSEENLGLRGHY
# [11] = target: T5, RNA-binding protein pos-1 (Caenorhabditis elegans, UniProt G5EF15); assay: disruptors of C. elegans POS-1 RNA interaction – biochemical, fluorescence polarization, dose response (AID 1964);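 also: purified POS-1 fused to maltose binding protein made in E. coli; potency of compounds blocking POS-1 binding to fluorescent RNA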
# T5 sequence (G5EF15 whole entry): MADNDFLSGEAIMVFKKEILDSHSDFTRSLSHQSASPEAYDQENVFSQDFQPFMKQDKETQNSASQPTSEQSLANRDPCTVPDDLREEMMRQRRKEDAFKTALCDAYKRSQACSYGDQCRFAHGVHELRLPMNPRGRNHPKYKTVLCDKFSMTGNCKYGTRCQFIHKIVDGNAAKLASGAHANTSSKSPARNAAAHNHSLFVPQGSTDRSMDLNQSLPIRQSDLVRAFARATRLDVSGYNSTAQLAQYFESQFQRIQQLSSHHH
# [12] = target: T6, Endoribonuclease toxin MazF (Escherichia coli K-12, UniProt P0AE70); assay: substrate-only fluorescence increase artefacts – biochemical, single-stranded RNase substrate, counter-screen for MazEF activator project, dose response (AID 588502); type: functional
# T6 sequence (P0AE70 whole entry): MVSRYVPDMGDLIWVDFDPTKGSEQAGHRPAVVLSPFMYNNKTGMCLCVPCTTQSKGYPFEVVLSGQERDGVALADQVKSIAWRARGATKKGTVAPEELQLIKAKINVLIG
# [13] = target: T6, Endoribonuclease toxin MazF; assay: activation of MazEF endoribonuclease cleavage – biochemical, fluorescence, single-stranded RNA substrate, uHTS hits, dose response (AID 588481); type: functional
# [14] = target: T7, Long-chain-fatty-acid--AMP ligase FadD28 (Mycobacterium tuberculosis, UniProt P9WQ59); assay: Fluorescence polarization aasay to screen for inhibitors that compete for the binding of FadD28 to a bisubstrate Measured in Biochemical System Using Plate Reader - 2147-01_Inhibitor_Dose_CherryPick_Activity.; type: functional, Mycobacterium tuberculosis H37Rv
# T7 sequence (P9WQ59 whole entry): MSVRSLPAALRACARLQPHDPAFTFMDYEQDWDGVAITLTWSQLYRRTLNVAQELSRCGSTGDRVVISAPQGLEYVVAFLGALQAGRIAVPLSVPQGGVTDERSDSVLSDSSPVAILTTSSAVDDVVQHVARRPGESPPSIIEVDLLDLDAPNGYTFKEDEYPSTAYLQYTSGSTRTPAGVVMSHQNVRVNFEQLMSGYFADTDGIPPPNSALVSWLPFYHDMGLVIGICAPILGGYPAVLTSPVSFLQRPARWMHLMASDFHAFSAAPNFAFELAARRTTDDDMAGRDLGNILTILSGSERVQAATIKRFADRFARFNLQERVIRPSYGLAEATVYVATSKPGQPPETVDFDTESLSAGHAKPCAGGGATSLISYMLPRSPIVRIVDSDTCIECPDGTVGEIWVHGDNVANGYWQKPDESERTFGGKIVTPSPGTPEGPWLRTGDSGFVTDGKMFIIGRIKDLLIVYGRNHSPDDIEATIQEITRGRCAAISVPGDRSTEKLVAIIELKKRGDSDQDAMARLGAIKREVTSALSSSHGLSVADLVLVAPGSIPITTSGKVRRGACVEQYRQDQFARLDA
# [15] = NIH3T3 cell viability loss – ATP luminescence, mouse fibroblasts, counter-screen, dose response (AID 2010); type: functional, cell-based;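 also: cells exposed to compound for about 90 hours before reading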
# [16] = Trypanosoma cruzi growth suppression in host cells – NIH3T3 host cells, beta-gal luminescence, confirmation (AID 2044); type: functional, cell-based;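 also: intracellular parasites grown in NIH/3T3 mouse fibroblasts as host cells; luminescent beta-galactosidase reporter signal from transgenic T. cruzi replicating inside host cells; inhibitors lower the luminescence signal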
# Large T antigen = Large T antigen (Simian virus 40, UniProt P03070); type: functional, Betapolyomavirus macacae;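 also: Confirmatory-stage PubChem screen for compounds that inhibit SV40 T antigen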
# Large T antigen, sequence (P03070 whole entry): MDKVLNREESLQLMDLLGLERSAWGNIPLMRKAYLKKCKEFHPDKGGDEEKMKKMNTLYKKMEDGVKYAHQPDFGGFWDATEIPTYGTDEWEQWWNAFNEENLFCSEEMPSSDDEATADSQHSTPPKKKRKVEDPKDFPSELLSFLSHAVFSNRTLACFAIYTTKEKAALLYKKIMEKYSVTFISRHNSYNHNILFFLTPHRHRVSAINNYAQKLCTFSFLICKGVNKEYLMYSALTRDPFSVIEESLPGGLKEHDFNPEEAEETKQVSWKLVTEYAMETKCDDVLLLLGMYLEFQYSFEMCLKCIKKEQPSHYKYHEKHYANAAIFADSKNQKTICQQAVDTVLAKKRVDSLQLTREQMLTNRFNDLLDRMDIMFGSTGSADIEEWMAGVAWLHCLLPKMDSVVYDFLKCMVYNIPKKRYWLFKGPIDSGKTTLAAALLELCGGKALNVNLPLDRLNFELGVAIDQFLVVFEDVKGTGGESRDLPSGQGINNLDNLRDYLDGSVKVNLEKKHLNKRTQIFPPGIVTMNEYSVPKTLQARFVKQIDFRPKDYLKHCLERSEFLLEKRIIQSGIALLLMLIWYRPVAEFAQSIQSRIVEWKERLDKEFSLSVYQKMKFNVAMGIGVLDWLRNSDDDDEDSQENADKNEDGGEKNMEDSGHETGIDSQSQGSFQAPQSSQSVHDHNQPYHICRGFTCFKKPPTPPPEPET
# 72 kDa type IV collagenase, sequence (P08253 whole entry): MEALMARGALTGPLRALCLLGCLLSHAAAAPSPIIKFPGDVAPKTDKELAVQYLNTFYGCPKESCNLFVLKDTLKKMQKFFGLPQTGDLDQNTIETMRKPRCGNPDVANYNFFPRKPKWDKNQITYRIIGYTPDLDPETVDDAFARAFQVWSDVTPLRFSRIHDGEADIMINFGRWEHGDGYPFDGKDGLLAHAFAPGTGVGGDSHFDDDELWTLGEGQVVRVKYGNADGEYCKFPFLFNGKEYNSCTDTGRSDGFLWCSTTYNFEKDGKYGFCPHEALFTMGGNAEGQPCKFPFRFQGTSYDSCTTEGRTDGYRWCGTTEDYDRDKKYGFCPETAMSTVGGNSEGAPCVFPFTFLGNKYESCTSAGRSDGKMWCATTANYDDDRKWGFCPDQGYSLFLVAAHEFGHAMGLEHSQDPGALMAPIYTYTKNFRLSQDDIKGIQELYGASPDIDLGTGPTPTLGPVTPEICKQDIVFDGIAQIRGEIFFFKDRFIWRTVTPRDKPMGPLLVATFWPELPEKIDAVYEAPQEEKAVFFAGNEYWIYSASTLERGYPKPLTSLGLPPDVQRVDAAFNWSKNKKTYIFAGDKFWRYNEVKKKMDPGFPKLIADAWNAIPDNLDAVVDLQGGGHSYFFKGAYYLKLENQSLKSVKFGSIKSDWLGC
smiles,measurement,setting,value
NC(=O)CC(NC(=O)Cc1ccc(Cl)cc1)c1ccc(NC2CCCC2)c([N+](=O)[O-])c1 (stereo not given),IC50,[1],> 100 µM (inactive)
same,IC50,[2],29.9 µM (active)
same,IC50,Prothrombin,38.8 µM (active)
O=C(COC(=O)c1cnc(Cl)c(Cl)c1)NCCC1=CCCCC1,IC50,[3],7.16 µM (active)
same,EC50,[4],> 53 µM (inactive)
same,IC50,[5],7.15 µM (active)
CN(CC(=O)Nc1ccc(Cl)c(C(F)(F)F)c1)C(=O)CC1Sc2ccccc2NC1=O (stereo not given),IC50,[6],33.6 µM (active)
COC(=O)C(NC(=O)c1ccc(OC)cc1)(Nc1ncc(S(=O)(=O)c2ccc([N+](=O)[O-])cc2)s1)C(F)(F)F (stereo not given),IC50,[3],< 0.368 µM (active)
same,CC50,[7],13.4 µM (active)
same,EC50,[4],> 53 µM (inactive)
same,CC50,[8],> 40 µM (active)
same,IC50,[5],2.58 µM (active)
CCOC(=O)c1ccc(N2C(=O)CC(N3CCC(O)(c4ccc(Cl)cc4)CC3)C2=O)cc1 (stereo not given),AC50,[9],2.97 µM (active)
Brc1ccccc1-c1nnc(CSc2nnnn2-c2ccccc2)o1,IC50,[3],8.93 µM (active)
same,EC50,[4],> 53 µM (inactive)
same,IC50,Estrogen receptor,> 50 µM (not active)
same,IC50,[5],1.36 µM (active)
CCOC(=O)c1c(NC(=O)c2c(Br)cnn2C)c(C#N)nn1-c1ccccc1,IC50,[3],43.9 µM (active)
same,EC50,[4],> 53 µM (inactive)
same,IC50,[5],18.4 µM (active)
Oc1[nH]c2ccccc2c1N=Nc1ccccc1,EC50,[10],18.3 µM (inconclusive)
same,EC50,[11],7.37 µM (inconclusive)
same,EC50,[12],54.6 µM (inactive)
same,EC50,[13],> 99 µM (inactive)
COc1ccc(N2CCN(C(=O)c3ccc(Br)cc3)CC2)c([N+](=O)[O-])c1,AC50,[9],0.691 µM (active)
COc1ccc(C(=O)NCc2ccc(C)cc2)cc1S(=O)(=O)N1CCCC1,AC50,[14],19 µM (active)
O=[N+]([O-])c1ccc([S+]([O-])Cc2ccccc2)c([N+](=O)[O-])c1 (stereo not given),AC50,[9],2.17 µM (active)
CC(=O)Nc1ccc(/N=C(/C2=C(O)c3ccccc3C2=O)c2ccccc2)cc1,AC50,[14],> 100 µM (inactive)
COc1ccc2c(c1)Cc1sc(NC(=O)c3cccs3)nc1-2,EC50,[15],> 60 µM (not active)
same,EC50,[16],2.01 µM (active)
same,IC50,[6],28.7 µM (active)
N#C/C(=C\c1ccc(O)c(O)c1)C(=O)N1CCc2ccccc21,IC50,[1],> 100 µM (inactive)
same,IC50,[2],0.798 µM (active)
same,IC50,Large T antigen,11.9 µM (active)
same,IC50,Prothrombin,45.9 µM (active)
